Measurements reported in patent US20050203290A1, “Crystalline form of sucralose, and method for producing it” (priority 2003, published 2005).

Experiments:
[1] = accelerated aging test (shelf life of crystalline sucralose); assay type: physicochemical
Experimental: Shelf life of crystalline sucralose is commonly estimated by performing an accelerated aging test. In this test the crystals are maintained in a controlled atmosphere at 50° C. (122° F.), and sampled periodically. Each sample is dissolved in water and the pH of a 10% solution is tracked to determine the elapsed time at which the pH drops by one unit, indicating a slight sucralose decomposition. Crystals made by traditional methods are considered stable when such decomposition is not indicated until at least 3 days in this test. This is considered equivalent to a shelf life under ambient conditions of about 8 years.

[2] = particle size analysis by light scattering (Coulter LS100Q); assay type: physicochemical; conditions: Isopar G isoparaffin fluid as dispersing medium
Experimental: Particle size analysis of the product is performed using a Coulter LS100Q Particle Size Analyzer, available from Coulter Corporation of Miami, Florida. The analyzer operates by light scattering, using Isopar™ G isoparaffin fluid, available from ExxonMobil Chemical of Houston, Tex., as the dispersing medium. The sucralose product crystals have a particle size distribution such that 90 wt. % of the sample has a particle size less than 62 μm, while 10 wt. % has a particle size less than from about 4 μm, with a mean of 30 μm.

Row | Compound | elapsed time until pH drop under accelerated conditions ([1]; 50° C., dried at the preferred temperature, moisture levels typical of old crystals) | stability in accelerated aging test: elapsed time until pH of a 10% solution drops by one unit ([1]; crystals kept at 50° C. (122° F.) in controlled atmosphere, Example product dried at about 60° F., moisture about 0.5 wt. %) | shelf life under typical ambient storage conditions corresponding to the accelerated aging result ([1]; extrapolated from accelerated aging test at 50° C.) | mean particle size [2] | particle size below which 10 wt. % of the sample lies [2] | particle size below which 90 wt. % of the sample lies [2]
1 | OC[C@H]1O[C@H](O[C@]2(CCl)O[C@H](CCl)[C@@H](O)[C@@H]2O)[C@H](O)[C@@H](O)[C@H]1Cl [old crystals, 4,1′,6′-trichloro-4,1′,6′-trideoxygalactosucrose, reference compound] | 3 days | – | – | – | – | –
2 | OC[C@H]1O[C@H](O[C@]2(CCl)O[C@H](CCl)[C@@H](O)[C@@H]2O)[C@H](O)[C@@H](O)[C@H]1Cl [sucralose product crystals, 4,1′,6′-trichloro-4,1′,6′-trideoxygalactosucrose] | – | at least 3 days | about 8 years | 30 μm | < 4 μm | less than 62 μm
